Structures can show the parent of a compound that is named as a salt. Where two headings read alike, the source gives them in different places. Square brackets hold non-standard residues; d marks the D form. Peptide text beside a SMILES is read from it. * marks the point of attachment. Sta = CC(C)C[C@H](N)[C@@H](O)CC(=O)O; Isovaleryl = CC(C)CC(=O)*
How the values were obtained:
[1] = system: protease from strain SRC002 (MTCC 5564); assay: Effect of inhibitors, metals and chemicals on protease activity; assay type: biochemical, Pseudomonas aeruginosa; details: for effect on protease activity: EGTA 10 mM, 1,10 Phenanthrolin 2 mM, Phosphoramidone 500 μg/ml, Antipain 20 μM, Bestatin 50 μg/ml, Chymostatin 20 μM, E-64 2 μM, Pepstatin 1 μM, Ebelacetone-B 1 μM
[2] = system: Strain A/SRC002 (MTCC 5564); assay: Antibiotic sensitivity by disk diffusion method, Strain A; assay type: cell-based, Pseudomonas aeruginosa; details: Himedia antibiotic discs, Mueller Hinton Agar, 37° C. overnight
Method: (§1) The sensitivity of the strains against different antibiotics was determined by disk diffusion method using commercially available (Himedia) antibiotic discs. The representative of each group of antibiotic had been tested. The antibiotics used were Ampicillin (A10), Cephadroxil (Cq30), Chloramphenicol (C30), Cloxacillin (Cx30), Cephotaxime (Ce30), Ceftazidime (Ca30), Ciprofloxacin (Cf5), Doxycycline Hydrochloride (Do30), Gentamicin (G10), Metronidazole (Mt4), Neomycin (N30), Norfloxacin (Nx10), Polymyxin B (Pb100), Rifampicin (R15), Roxithromycin (Ro30), Tetracycline (T30), Trimethoprin (Tr30), Vancomycin (Va30). The concentrations of the antibiotics in microgram per disc were mentioned in parenthesis indicated above except for Polymyxin B where it is 100 units. Mueller Hinton Agar medium (Himedia-M173) was used to grow each of the microorganisms for antibiotic sensitivity test. The log phase culture of each isolate was diluted 100 times and poured on Mueller Hinton Agar (MHA) plates. It was swirled uniformly to distribute the culture throughout the plate. After waiting for 30 mins, the cultures were carefully pipetted out from the plates and the plates were allowed to dry. Then the antibiotic disks were placed onto the MHA surface using the dispenser provided with the antibiotic discs. The plates were incubated at 37° C. for overnight. The zones of inhibition were measured. The results were evaluated using National Committee for Clinical Laboratory Standard's (NCCLS) chart provided with the antibiotic discs by Himedia. The assay was repeated three times for each organism.

Strain B/GZN (MTCC 5566) = assay: Antibiotic sensitivity by disk diffusion method, Strain B; assay type: cell-based, Pseudomonas aeruginosa; details: Himedia antibiotic discs, Mueller Hinton Agar, 37° C. overnight
Method: as §1

[3] = concentration not given, crude enzyme for the partial inhibitors

Compound | antibiotic sensitivity (zones of inhibition evaluated by NCCLS chart) [2] | effect on enzyme activity [1, 3] | antibiotic sensitivity (zones of inhibition evaluated by NCCLS chart) (Strain B/GZN (MTCC 5566)) | further results
[Zn] [Zn] |  |  |  | enzyme activity retained in the presence of metal ([1]; concentration not given): 34%
CC1=C(C(=O)O)N2C(=O)[C@@H](NC(=O)[C@H](N)c3ccc(O)cc3)[C@H]2SC1 [Cephadroxil] | resistant |  |  | 
CC(C)C[C@H](NC(=O)[C@@H](NC(=O)N[C@@H](Cc1ccccc1)C(=O)O)[C@@H]1CCN=C(N)N1)C(=O)N[C@H](C=O)Cc1ccccc1 [Chymostatin] |  | no inhibitory effect |  | effect on protease activity [1]: almost no effect
CN[C@H](CC(C)C)C(=O)N[C@H]1C(=O)N[C@@H](CC(N)=O)C(=O)N[C@H]2C(=O)N[C@H]3C(=O)N[C@H](C(=O)N[C@H](C(=O)O)c4cc(O)cc(O)c4-c4cc3ccc4O)[C@H](O)c3ccc(c(Cl)c3)Oc3cc2cc(c3O[C@@H]2O[C@H](CO)[C@@H](O)[C@H](O)[C@H]2O[C@H]2C[C@](C)(N)[C@H](O)[C@H](C)O2)Oc2ccc(cc2Cl)[C@H]1O [Vancomycin] | resistant |  | resistant | 
Cc1onc(-c2ccccc2Cl)c1C(=O)N[C@@H]1C(=O)N2[C@@H]1SC(C)(C)[C@@H]2C(=O)O [Cloxacillin] | resistant |  |  | 
c1cnc2c(c1)ccc1cccnc12 [1,10 Phenanthrolin] |  | completely inhibited |  | effect on protease activity [1]: completely inhibited
Polymyxin B [PolymyxinB] | resistant |  | resistant | 
[Al] [Al] |  |  |  | enzyme activity retained in the presence of metal ([1]; concentration not given): 70%
CC(C)C[C@H](NC(=O)[C@H]1O[C@@H]1C(=O)O)C(=O)NCCCCN=C(N)N [Strain E-64, E-64] |  | no inhibitory effect |  | effect on protease activity [1]: almost no effect
Gentamicin [Gentamycine] | resistant |  | sensitive | 
[Co] [Co] |  |  |  | enzyme activity retained in the presence of metal ([1]; concentration not given): 82%
[Pb] [Pb] |  |  |  | enzyme activity retained in the presence of metal ([1]; concentration not given): 50%
CCn1cc(C(=O)O)c(=O)c2cc(F)c(N3CCNCC3)cc21 [Norfloxacine, Norfloxacin] | sensitive |  | resistant | 
Triton X 100 |  | partially inhibited |  | 
Cc1ncc([N+](=O)[O-])n1CCO [Metronidazole] | resistant |  |  | 
CC(C)C[C@H](NP(=O)(O)O[C@@H]1O[C@@H](C)[C@H](O)[C@@H](O)[C@H]1O)C(=O)N[C@@H](Cc1c[nH]c2ccccc12)C(=O)O [Phosphoramidone] |  | completely inhibited |  | effect on protease activity [1]: completely inhibited
CC1(C)S[C@@H]2[C@H](NC(=O)[C@H](N)c3ccccc3)C(=O)N2[C@H]1C(=O)O [Ampicillin] | resistant |  | resistant | 
[Ni] [Ni] |  |  |  | enzyme activity retained in the presence of metal ([1]; concentration not given): 70%
NC[C@@H]1O[C@H](O[C@H]2[C@@H](O)[C@H](O[C@@H]3[C@@H](O)[C@H](N)C[C@H](N)[C@H]3O[C@H]3O[C@H](CN)[C@@H](O)[C@H](O)[C@H]3N)O[C@@H]2CO)[C@H](N)[C@@H](O)[C@@H]1O [Neomycine, Neomycin] | sensitive |  | intermediate response | 

Compound | antibiotic sensitivity (zones of inhibition evaluated by NCCLS chart) [2] | effect on enzyme activity [1, 3] | antibiotic sensitivity (zones of inhibition evaluated by NCCLS chart) (Strain B/GZN (MTCC 5566)) | further results
[Cr] [Cr] |  |  |  | enzyme activity retained in the presence of metal [1]: up to 90%
[Hg] [Hg] |  | complete inhibition |  | 
[Cd] [Cd] |  |  |  | enzyme activity retained in the presence of metal ([1]; concentration not given): 34%
CC(C)(O/N=C(\C(=O)N[C@@H]1C(=O)N2C(C(=O)[O-])=C(C[n+]3ccccc3)CS[C@H]12)c1csc(N)n1)C(=O)O [Ceftazidime] | resistant |  | intermediate response | 
CN(C)[C@@H]1C(=O)C(C(N)=O)=C(O)[C@@]2(O)C(=O)C3=C(O)c4c(O)cccc4[C@@](C)(O)[C@H]3C[C@@H]12 [Tetracyclin, Tetracycline] | resistant |  | resistant | 
CC[C@@H](C)[C@@H](O)[C@H](C)C(=O)[C@H](C)/C=C(\C)C[C@H](C)[C@@H]1OC(=O)[C@H]1CC [Ebelacetone-B] |  | no inhibitory effect |  | effect on protease activity [1]: almost no effect
OO [hydrogen peroxide] |  | partially inhibited |  | 
O=C(O)CN(CCN(CC(=O)O)CC(=O)O)CC(=O)O [EDTA] |  |  |  | effect on enzyme activity [1]: inactivated
O=C(O)c1cn(C2CC2)c2cc(N3CCNCC3)c(F)cc2c1=O [Ciprofloxacin] | sensitive |  | resistant | 
C[C@H]1c2cccc(O)c2C(=O)C2=C(O)[C@]3(O)C(=O)C(C(N)=O)=C(O)[C@@H](N(C)C)[C@@H]3[C@@H](O)[C@@H]21 [Doxycycline hydrochloride, Doxycycline Hydrochloride] | resistant |  | resistant | 
[Cu] [Cu] |  |  |  | enzyme activity retained in the presence of metal ([1]; concentration not given): 50%
COc1cc(Cc2cnc(N)nc2N)cc(OC)c1OC [Trimethoprim] | resistant |  | intermediate response | 
OCCS [beta-merceptoethanol] |  | partially inhibited |  | 
O=C(O)CN(CCOCCOCCN(CC(=O)O)CC(=O)O)CC(=O)O [EGTA] |  | completely inhibited |  | effect on protease activity [1]: completely inhibited
[Ag] [Ag] |  |  |  | enzyme activity retained in the presence of metal ([1]; concentration not given): 76%
CC(C)CC(=O)N[C@H](C(=O)N[C@H](C(=O)N[C@@H](CC(C)C)[C@@H](O)CC(=O)N[C@@H](C)C(=O)N[C@@H](CC(C)C)[C@@H](O)CC(=O)O)C(C)C)C(C)C [Pepstatin] (Isovaleryl-VV[Sta]A[Sta]-OH) |  | no inhibitory effect |  | effect on protease activity [1]: almost no effect
CC(C)C[C@H](NC(=O)[C@@H](O)[C@H](N)Cc1ccccc1)C(=O)O [Bestatin] |  | no inhibitory effect |  | effect on protease activity [1]: almost no effect
O=C(N[C@H](CO)[C@H](O)c1ccc([N+](=O)[O-])cc1)C(Cl)Cl [Cloramphenicol, Chloramphenicol] | resistant |  | intermediate response | 
CO/N=C(\C(=O)N[C@@H]1C(=O)N2C(C(=O)O)=C(COC(C)=O)CS[C@H]12)c1csc(N)n1 [Cephotaxime] | resistant |  | intermediate response | 
